Reference: PubChem BioAssay (NCI)
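In this assay, cells in 96-well plates receive the compound at five concentrations for 48 hours. Endpoints are linearly interpolated between the surrounding concentrations. GI50 is the concentration that inhibits growth by half. The concentration for full growth arrest is given as TGI.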

Assays:
Test in all cases: DTP human tumour cell line panel, 48 h
BT-549 breast = tested on: BT-549 breast
COLO 205 colon = tested on: COLO 205 colon
HL-60(TB) leukemia = tested on: HL-60(TB) leukemia
K-562 leukemia = tested on: K-562 leukemia
MCF7 breast = tested on: MCF7 breast
SK-MEL-5 melanoma = tested on: SK-MEL-5 melanoma
UACC-62 melanoma = tested on: UACC-62 melanoma

Structure (SMILES) | TGI (BT-549 breast) [µM] | TGI (COLO 205 colon) [µM] | TGI (HL-60(TB) leukemia) [µM] | TGI (K-562 leukemia) [µM] | TGI (MCF7 breast) [µM] | TGI (SK-MEL-5 melanoma) [µM] | TGI (UACC-62 melanoma) [µM] | GI50 (BT-549 breast) [µM] | GI50 (COLO 205 colon) [µM] | GI50 (HL-60(TB) leukemia) [µM] | GI50 (K-562 leukemia) [µM] | GI50 (MCF7 breast) [µM] | GI50 (SK-MEL-5 melanoma) [µM] | GI50 (UACC-62 melanoma) [µM]
COc1ccc2c(c1)CCc1c(-c3noc4c3CCc3cc(OC)ccc3-4)noc1-2 | > 100 | > 100 | > 100 | > 100 | > 100 | > 100 | > 100 | – | – | – | – | – | – | –
COc1ccc(C(=O)N2CCc3c([nH]c4ccccc34)C2C(=O)O)o1 (stereo not drawn) | > 10 | > 10 | > 10 | > 10 | > 10 | > 10 | > 10 | – | – | – | – | – | – | –
NC1=C(Cl)C(=O)c2ccc(S(N)(=O)=O)cc2C1=O | 0.314 | 2.98 | 1.18 | 1.21 | 0.346 | 0.0963 | 0.273 | 0.171 | 1.57 | 0.366 | 0.313 | 0.15 | 0.0304 | 0.135
CCCCCCCC/C=C/CCCCCCCC1=NC(C)(C)CN1C(C)C | 3.74 | 2.09 | 3.25 | 2.39 | 2.95 | 2.96 | 3.02 | 1.58 | 0.516 | 1.62 | 1.11 | 1.52 | 1.61 | 1.61
C=C1C(=O)O[C@H]2[C@H]1CC/C(COC(=O)CCCCCCCCC(=O)OC/C1=C/CC[C@@]3(C)O[C@H]3[C@H]3OC(=O)C(=C)[C@@H]3CC1)=C\CC[C@@]1(C)O[C@@H]21 | 3.22 | 4.15 | 8.26 | 9.7 | – | 3.48 | 4.25 | 1.54 | 1.89 | 2.05 | 2.6 | – | 1.91 | 1.99
c1cc(OCCN2CCCCCC2)ccc1CNc1ccc2nc(CCC3CCCCC3)[nH]c2c1 | 5.54 | 3.57 | 3.8 | 4.61 | 4.12 | 3.17 | 3.35 | 1.83 | 1.81 | 1.76 | 1.63 | 1.72 | 1.74 | 1.84
COc1ccc(-c2cnc3ccnn3c2-c2cc(OC)c(OC)c(OC)c2)cc1 | 95.4 | 5.51 | 7.16 | > 100 | > 100 | > 100 | > 100 | 12.2 | 2.1 | 2.3 | 0.706 | 3.51 | 4.53 | 2.15
Cc1cc(O)c(C(c2cccnc2)c2c(O)cc(C)[nH]c2=O)c(=O)[nH]1 | > 100 | > 100 | > 100 | > 100 | > 100 | > 100 | > 100 | – | – | – | – | – | – | –
O=c1cc(-c2ccc(Cl)cc2)[nH]c2ncccc12 | > 100 | 83 | 41.6 | 76.1 | > 100 | > 100 | > 100 | – | – | 16.6 | – | – | 29 | –
C=C1C(=O)O[C@H]2[C@H]1CC/C(Cn1cc(Cn3ccc4ccccc43)nn1)=C\CC[C@@]1(C)O[C@@H]21 | 2.69 | 3.41 | 3.79 | 5.65 | 3.18 | 4.38 | 2.89 | 1.38 | 1.71 | 1.2 | 1.77 | 1.3 | 1.97 | 1.44
Cc1cc(C)c(O)c(Cc2cccc(Cc3cc(C)cc(C)c3O)c2O)c1 | > 100 | > 100 | – | > 100 | > 100 | > 100 | > 100 | – | – | – | – | – | – | –
CCOC(=O)c1c(C)nc2ccc(Cl)cc2c1-c1ccccc1 | 57.2 | 53.4 | 41 | > 100 | 70.4 | 29 | 26.6 | 22.5 | 17.9 | 14.2 | 20.1 | 24 | 14.5 | 10.7
CN(C)CCCN(c1nc(C(Cl)(Cl)Cl)ns1)c1nc(C(Cl)(Cl)Cl)ns1 | – | 2.85 | 3.43 | 3.93 | 3.62 | 2.95 | 4.91 | – | 1.47 | 1.52 | 1.79 | 1.9 | 1.6 | 2.1
COc1cc(C#N)cc(OC)c1OCCOCCOc1c(OC)cc(C#N)cc1OC | 73.2 | > 100 | 85.7 | 37.1 | > 100 | > 100 | > 100 | 25.3 | 37.2 | 19 | 11.7 | 63.4 | 69.8 | 33.1
O=C1N=C(c2ccccc2)OC1C(=O)c1ccccc1 (stereo not drawn) | > 100 | > 100 | > 100 | > 100 | > 100 | > 100 | > 100 | – | – | – | – | – | – | –
C=C1C(=O)O[C@@H]2C(=O)[C@@H](C)[C@@H]3C=CC(=O)[C@@]3(C)[C@@H](OC(=O)/C(C)=C\C)[C@H]12 | 2.01 | 0.725 | 0.415 | 1.64 | 4.93 | 3.13 | 2.95 | – | – | – | – | – | – | –
C#CCN=C(N/N=C/c1ccc([N+](=O)[O-])o1)NS(=O)(=O)c1cc(C)c(Cl)cc1SCC(N)=O | 9.43 | 84.4 | > 100 | 52.5 | 22.5 | 15.2 | > 100 | 1.79 | 26.9 | 21.1 | 23.7 | 6.59 | 4.14 | 47.3
COc1ccc(/C(C)=C(\c2ccc(Cl)cc2)c2ccc(OCCN3CCCC3)cc2)cc1F | 6.74 | 7.49 | 7.89 | 4.54 | 6.15 | 7.78 | 6.32 | 3.24 | 2.16 | 3.54 | 0.944 | 2.41 | 4.1 | 3.1
O=C(Nc1nccs1)c1cc2c(cc1Cl)Sc1nccn1S2(=O)=O | 35.4 | 30.7 | 31.2 | 37.1 | 19.9 | 30 | 27.4 | 18.2 | – | 13.6 | 15.9 | 6.72 | 16.5 | 14.3
